This passage reports melting point results from patent publication US20130317064A1 (priority 2011, published 2013).

Compound `Cc1cc(C(F)(F)F)nn1CC(=O)N1CCC(c2nc(NC(=O)C3=C(O)CCCC3=O)cs2)CC1` [I.a.001, 2-hydroxy-6-oxo-cyclohex-1-enecarboxylic acid (2-{1-[2-(5-methyl-3-trifluoromethyl-pyrazol-1-yl)-acetyl]-piperidin-4-yl}-thiazol-4-yl)-amide] gave a melting point of 102 to 105 °C.
